Test results reported in patent US9067888B2, “Inhibitors of protein kinases” (Ingenium Pharmaceuticals GmbH, priority 2010, dated 2015).

Experiments:
[1] = system: TNF-alpha inducible reporter gene; assay: Inhibition of TNF-alpha-induced reporter gene expression (luciferase) in HeLa-derived cell line; type: cell-based, human; settings: Homo sapiens, 6 h, remaining luciferase activity in presence of 3 μM of compound as ratio of DMSO-treated cells, TNF-alpha 50 ng/ml, read-out: Efficacy (ratio to DMSO) TNF-alpha induced response
Excerpt: TNF-alpha responsive cell lines like the human HeLa cell line can be used to study cellular responses to TNF-alpha, e.g. transcriptional regulation of a transfected TNF-alpha responsive reporter gene, and effects of kinase inhibitors on this response.
In order to analyse compound effects on TNF-alpha mediated transcriptional response, a HeLa-derived cell line stably transfected with a TNF-alpha inducible reporter gene was used (Panomics Catalog No. RC0013). The cell line was obtained by co-transfection of a luciferase reporter gene (Panomics P/N LR0051) and pHyg into human cervical epithelial HeLa cells, followed by hygromycin selection. TNFα-induced luciferase activity was used to select clones from the hygromycin-resistant cells. The cell line was maintained and stimulated according to the manufacturer's instructions. Briefly, cells were seeded at 5×10^5/well in 1 ml of growth medium in a 12-well plate and incubated in a humidified incubator at 37° C. and 5% CO2 for 24 hours. Medium was replaced with 1 ml of serum free medium and compounds were added up to concentrations of […]. After 1 hour of incubation, TNF-alpha was added to achieve a final concentration of 50 ng/ml. The culture dish was further incubated in a humidified incubator at 37° C. and 5% CO2 for 6 hours, medium was removed and 100 μL of lysis buffer were added to each well and the assay for luciferase activity was performed according to assay manufacturer's (Promega P/N E1500) recommendations. For more information about this cell line, go to worldwide website www(dot)panomics.com.
Compound effects on TNF-alpha-induced reporter gene expression is shown in column 6 in Table 1 given below. Indicated is the remaining luciferase activity after incubation in presence of 3 μM of compound as a ratio of the activity of DMSO-treated cells without compound. Specifically, it was intended to distinguish cell permeable compounds from other compounds having significant inhibitory potency with regard to other CDKs, but fail to penetrate cells or are unstable under the conditions of the experiment.

CDK9 = CDK9 (Homo sapiens (Human), UniProt P50750); assay: In vitro kinase inhibition, KinaseProfiler service of Millipore, residual activity; type: biochemical; settings: for remaining activity at 0.01 µM / CDK9 10 nM (RA in %): residual activity at 10 nM compound; for remaining activity at 0.01 µM: read-out: CDK9 10 nM (RA in %); for remaining activity at 0.1 µM / CDK9 100 nM (RA in %): residual activity at 100 nM compound; for remaining activity at 0.1 µM: read-out: CDK9 100 nM (RA in %)
Excerpt: In vitro kinase assay analysis may be performed using standard techniques described in the art. These techniques are also used by commercial services providers in order to offer in vitro kinase activity assay services, e.g. the assays offered by Millipore Inc. (worldwide website www(dot)millipore.com), ProQinase GmbH (worldwide website www(dot)proqinase.de) and others.
In vitro kinase inhibition results shown in columns 7 to 9 in Table 1 were obtained by employing the KinaseProfiler™ service of Millipore and used to select compounds displaying specificity for CDK9. Specifically, it was intended to distinguish the CDK9-specific compounds from other compounds having significant inhibitory potency also with regard to other CDKs.

Sequence of CDK9 (P50750 whole entry): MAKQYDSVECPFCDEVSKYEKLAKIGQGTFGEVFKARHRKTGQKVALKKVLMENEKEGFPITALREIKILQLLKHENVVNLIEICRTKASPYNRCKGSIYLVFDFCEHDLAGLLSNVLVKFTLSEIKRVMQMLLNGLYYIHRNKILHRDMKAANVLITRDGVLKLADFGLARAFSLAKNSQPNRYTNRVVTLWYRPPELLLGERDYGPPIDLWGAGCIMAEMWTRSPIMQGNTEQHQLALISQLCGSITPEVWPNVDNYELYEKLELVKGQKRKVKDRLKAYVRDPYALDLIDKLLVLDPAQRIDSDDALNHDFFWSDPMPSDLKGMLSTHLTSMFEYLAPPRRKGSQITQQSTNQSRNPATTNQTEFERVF
Sequence of CDK9 (O60563 whole entry partner): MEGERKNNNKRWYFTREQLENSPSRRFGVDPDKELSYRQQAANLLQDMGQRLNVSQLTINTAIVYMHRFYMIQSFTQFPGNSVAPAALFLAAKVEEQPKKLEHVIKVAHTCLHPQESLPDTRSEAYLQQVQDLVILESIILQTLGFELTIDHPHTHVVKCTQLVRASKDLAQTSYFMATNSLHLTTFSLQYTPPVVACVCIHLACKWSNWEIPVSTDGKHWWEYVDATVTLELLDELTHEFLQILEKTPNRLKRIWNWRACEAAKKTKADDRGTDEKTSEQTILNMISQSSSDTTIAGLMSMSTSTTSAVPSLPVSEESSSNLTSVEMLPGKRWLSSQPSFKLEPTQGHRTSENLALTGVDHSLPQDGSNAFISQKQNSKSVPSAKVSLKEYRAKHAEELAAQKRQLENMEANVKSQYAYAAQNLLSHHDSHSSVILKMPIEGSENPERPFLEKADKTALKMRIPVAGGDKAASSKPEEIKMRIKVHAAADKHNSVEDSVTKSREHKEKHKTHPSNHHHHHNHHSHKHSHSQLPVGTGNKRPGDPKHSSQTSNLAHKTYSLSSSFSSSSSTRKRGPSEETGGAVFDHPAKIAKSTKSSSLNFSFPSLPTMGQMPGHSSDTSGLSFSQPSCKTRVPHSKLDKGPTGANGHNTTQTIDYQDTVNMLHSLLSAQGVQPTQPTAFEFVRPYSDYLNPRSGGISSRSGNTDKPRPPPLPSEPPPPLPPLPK

Row | SMILES | activity at 3 µM [1] [%] | remaining activity at 0.01 µM (CDK9) [%] | remaining activity at 0.1 µM (CDK9) [%] | CDK9 10 nM (RA in %) (CDK9) [%] | CDK9 100 nM (RA in %) (CDK9) [%]
1 | COc1cc(F)ccc1-c1ccnc(NC(=O)C(C)Cc2cccnc2)c1 (stereo not shown) [Example 24, N-(4-(4-Fluoro-2-methoxyphenyl)pyridin-2-yl)-2-((pyridin-3-yl)methyl)-propanamide] | 104 | 92 | 32 | – | –
2 | COc1cc(F)ccc1-c1ccnc(NC(=O)C(C)c2ccc(N3CCN(C)CC3)cc2)c1 (stereo not shown) [Example 27, N-(4-(4-Fluoro-2-methoxyphenyl)pyridin-2-yl)-2-(4-(4-methylpiperazin-1-yl)phenyl)propanamide] | 8 | 65 | 8 | – | –
3 | COc1cc(F)ccc1-c1ccnc(NC(=O)C2CNC(=O)C2)c1 (stereo not shown) [Example 5, N-(4-(4-Fluoro-2-methoxyphenyl)pyridin-2-yl)-5-oxopyrrolidine-3-carboxamide] | 4 | 46 | 5 | – | –
4 | COc1cc(F)ccc1-c1ccnc(NC(=O)Cc2ccnc(Cl)c2)c1 [Example 19, 2-(2-Chloropyridin-4-yl)-N-(4-(4-fluoro-2-methoxyphenyl)pyridin-2-yl)acetamide] | 6 | 49 | 9 | – | –
5 | COc1cc(F)ccc1-c1ccnc(NC(=O)[C@H]2CC[C@@H](NC(C)=O)C2)c1 [Example 41, (1S,3R)-3-Acetamido-N-(4-(4-fluoro-2-methoxyphenyl)pyridin-2-yl)cyclopentanecarboxamide] | 3 | 38 | 8 | – | –
6 | COc1cc(F)ccc1-c1ccnc(NC(=O)CC(C)c2ccncc2)c1 (stereo not shown) [Example 21, N-(4-(4-Fluoro-2-methoxyphenyl)pyridin-2-yl)-3-(pyridin-4-yl)butanamide] | 82 | 88 | 29 | – | –
7 | COc1cc(F)ccc1-c1ccnc(NC(=O)C(C)Cc2ccncc2)c1 (stereo not shown) [Example 22, N-(4-(4-Fluoro-2-methoxyphenyl)pyridin-2-yl)-2-((pyridin-4-yl)methyl)-propanamide] | 98 | 93 | 39 | – | –
8 | COc1cc(F)ccc1-c1ccnc(NC(=O)[C@H]2CC[C@@H](N)CC2)c1 [Example 4, cis-4-Amino-N-(4-(4-fluoro-2-methoxyphenyl)pyridin-2-yl)cyclohexane-carboxamide] | 5 | 59 | 4 | – | –
9 | COc1cc(F)ccc1-c1ccnc(NC(=O)[C@H]2CC[C@@H](NCc3ccccc3)CC2)c1 [Example 38, cis-4-(Benzylamino)-N-(4-(4-fluoro-2-methoxyphenyl)pyridin-2-yl)cyclo-hexanecarboxamide] | 2 | 65 | 4 | – | –
10 | COc1cc(F)ccc1-c1ccnc(NC(=O)[C@H]2CCC[C@H](NC(C)=O)C2)c1 (relative stereo) [Example 25, trans-3-Acetamido-N-(4-(4-fluoro-2-methoxyphenyl)-pyridin-2-yl)cyclohexanecarboxamide] | – | – | – | 99 | 78
11 | COc1ccc(CC(=O)Nc2cc(-c3ccc(F)cc3OC)ccn2)cn1 [Example 14, N-(4-(4-Fluoro-2-methoxyphenyl)pyridin-2-yl)-2-(6-methoxypyridin-3-yl)acetamide] | 4 | 25 | 7 | – | –
12 | COc1cc(F)ccc1-c1ccnc(NC(=O)[C@H]2CCC[C@H](NC(C)=O)C2)c1 (relative stereo) [Example 26, trans-3-Acetamido-N-(4-(4-fluoro-2-methoxyphenyl)-pyridin-2-yl)cyclohexanecarboxamide] | – | – | – | 33 | 5
